In patent US8663643B2, “Combinations of an anti-HER2 antibody-drug conjugate and chemotherapeutic agents, and methods of use” (Genentech, Inc., priority 2008, dated 2014):
“And” between values parts separate entries of the source, which are not always exact repeats. Equal entries are not always repeated.

What was measured:
[1] = tested on: MMTV-Her2 Fo5 transgenic mammary tumor; experiment: MMTV-Her2 Fo5 transgenic mammary tumor in Harlan athymic nude mice; assay type: in vivo; settings: for single agent efficacy vs vehicle: FIG. 14, lapatinib 101 mg/kg po bid×21, pertuzumab 40 mg/kg iv qwk×4, B20-4.1 5 mg/kg ip 2×/wk×4, T-DM1 15 mg/kg iv q3wk; for efficacy vs vehicle by both time to tumor doubling and time to tumor endpoint: ABT-869 15 mg/kg, T-DM1 either 7.5 or 15 mg/kg
Protocol: (§1) The efficacy of the combinations of the invention may be measured in vivo by implanting allografts or xenografts of cancer cells in rodents and treating the tumors with the combinations.
The time to tumor doubling was measured by Kaplan-Meier statistical analysis as 2× Vo. Time to tumor doubling and survival analysis were quantified by Log-rank-p values. Time to progression is measured as the elapsed time for tumor volume to reach 1000 mm^3, or the survival time if 1000 mm^3 tumor volume is not reached.
(§2) Animals suitable for transgenic experiments can be obtained from standard commercial sources. Groups of female CB-17 SCID beige mice (Charles River Laboratory) were implanted with 3 million KPL-4 (Her2 overexpressing) breast cancer cells with matrigel in the mammary fat pad. Groups of female athymic nude mice (Charles River Laboratory or Harlan) were implanted with 2×2 mm3 fragments of MMTV-Her2 Fo5 transgenic breast tumors in the mammary fat pad. Mouse xenografts were dosed at day 0 with drug, drug combination, or vehicle according to the schedule specified for each tumor model. […] Tumor sizes were recorded twice weekly over the course of the study. Mouse body weights were also recorded twice weekly, and the mice were observed regularly. […] Tumor inhibition graphs were plotted using KaleidaGraph, Version 3.6 (Synergy Software; Reading, Pa.). The tumor volume was calculated with formula: Tumor size (mm^3)=[…]
(§3) Tumor incidence (TI) was determined based on the number of measurable tumors remaining in each group at the end of the study. A partial response (PR) was defined as more than 50% but less than 100% reduction in tumor volume, compared with the starting tumor volume, observed for three consecutive measurements. A complete response (CR) was defined as a 100% reduction in tumor volume, compared with the initial tumor volume, observed for three consecutive measurements. Data were analyzed and p-values were determined using the Dunnett's t-test with JMP statistical software, version 5.1.2 (SAS Institute; Cary, N.C.). Individual tumor volumes at end of study and mean tumor volume±SEM values were calculated using JMP statistical software, version 5.1.2. Body weight data were graphed based on the mean percentage of change from initial body weights±SEM.

[2] = tested on: MMTV-HER2 Fo5 transgenic mammary tumor; experiment: MMTV-HER2 Fo5 transgenic mammary tumor in CRL nu/nu mice; assay type: in vivo; settings: FIG. 34; T-DM1 10 mg/kg iv q3wk; 5-FU 100 mg/kg po qwk×2; combination T-DM1 5 mg/kg + 5-FU 100 mg/kg; 42 day time point
Protocol: B20-4.1 was dosed on days 0, 3, 7, 10, 14, 17, 21 and 24 (2×/wk×4 for 8 total).
[…] Gemcitabine was dosed on days 0, 3, 6 and 9 (q3d×4).
The efficacy of the combinations of the invention may be measured in vivo by implanting allografts or xenografts of cancer cells in rodents and treating the tumors with the combinations. Variable results are to be expected depending on the cell line, the presence or absence of certain mutations in the tumor cells, the sequence of administration of trastuzumab-MCC-DM1 and chemotherapeutic agent, dosing regimen, and other factors. Subject mice were treated with drug(s) or control (Vehicle) and monitored over several weeks or more to measure the time to tumor doubling, log cell kill, and tumor inhibition (Example 3). FIGS. 10-17 and 34-37 show the efficacy of trastuzumab-MCC-DM1 in combinations with chemotherapeutic agents by xenograft tumor inhibition in mice.
Animals suitable for transgenic experiments can be obtained from standard commercial sources. Groups of female CB-17 SCID beige mice (Charles River Laboratory) were implanted with 3 million KPL-4 (Her2 overexpressing) breast cancer cells with matrigel in the mammary fat pad. Groups of female athymic nude mice (Charles River Laboratory or Harlan) were implanted with 2×2 mm3 fragments of MMTV-Her2 Fo5 transgenic breast tumors in the mammary fat pad. Mouse xenografts were dosed at day 0 with drug, drug combination, or vehicle according to the schedule specified for each tumor model. 5-FU, gemcitabine, carboplatin and B20-4.1 were administered intraperitoneal, pertuzumab was given either intravenously or intraperitoneal as indicated, trastuzumab-MCC-DM1 and docetaxel were administered intravenously, lapatinib, GDC-0941 and ABT-869 were given periorally by gavage. Tumor sizes were recorded twice weekly over the course of the study. Mouse body weights were also recorded twice weekly, and the mice were observed regularly. Tumor volume was measured in two dimensions (length and width) using Ultra Cal IV calipers (Model 54-10-111; Fred V. Fowler Co., Inc.; Newton, Mass.) and analyzed using Excel v.11.2 (Microsoft Corporation; Redmond, Wash.). Tumor inhibition graphs were plotted using KaleidaGraph, Version 3.6 (Synergy Software; Reading, Pa.). The tumor volume was calculated with formula: Tumor size (mm^3)=[…]
Tumor incidence (TI) was determined based on the number of measurable tumors remaining in each group at the end of the study. […] Data were analyzed and p-values were determined using the Dunnett's t-test with JMP statistical software, version 5.1.2 (SAS Institute; Cary, N.C.). Individual tumor volumes at end of study and mean tumor volume±SEM values were calculated using JMP statistical software, version 5.1.2. […]

KPL-4 tumors = experiment: KPL-4 tumor xenograft in SCID beige mice; assay type: in vivo; settings: for complete responses (CR) / partial responses (PR): FIG. 10
Protocol: Pertuzumab was dosed on days 0, 7, and 14.
Pertuzumab was dosed on days 0, 7, 14, 21 (qwk×4. 5-FU was dosed on days 0, 7 and 14 (qwk×3). B20-4.1 was dosed on days 0, 3, 7, 10, 14, 17, 21 and 24 (2×/wk×8 total).
as §1, §2, §3

[3] = tested on: phospho-Akt, phospho-ERK, Rb, PRAS40, phospho-histone H3, cyclin B1, PARP, Bcl-XL, caspases 3 and 7; experiment: biochemical analyses of biomarkers; assay type: cell-based
[4] = phase I study of GDC-0941 as a single agent; assay type: in vivo, human; settings: 60 mg qd
[5] = tested on: MDA-MB-361.1 mammary tumor; experiment: MDA-MB-361.1 mammary tumor xenograft in CRL nu/nu mice; assay type: in vivo
Protocol: as §1, §3

[6] = pertuzumab 15 mg/kg, days 0, 7, 14
[7] = FIG. 36 (2), GDC-0941 25 mg/kg po qd×21
[8] = FIG. 36 (3), GDC-0941 50 mg/kg po qd×21
[9] = FIG. 36 (4), GDC-0941 100 mg/kg po qd×21
[10] = FIG. 37 (2), GNE-390 1.0 mg/kg po qd×21
[11] = FIG. 37 (3), GNE-390 2.5 mg/kg po qd×21
[12] = FIG. 36 (5), T-DM1 3 mg/kg iv q3wk
[13] = FIG. 36 (6), T-DM1 10 mg/kg iv q3wk
[14] = FIG. 16, T-DM1 15 mg/kg iv q3wk×2, 15 mg/kg
[15] = FIG. 17, T-DM1 15 mg/kg iv q3wk×2

With `CC(=O)O[C@@]12CO[C@@H]1C[C@H](O)[C@@]1(C)C(=O)[C@H](O)C3=C(C)[C@@H](OC(=O)[C@H](O)[C@@H](NC(=O)OC(C)(C)C)c4ccccc4)C[C@@](O)([C@@H](OC(=O)c4ccccc4)[C@H]21)C3(C)C` [docetaxel, (2R,3S)—N-carboxy-3-phenylisoserine, N-tert-butyl ester, 13-ester with 5,20-epoxy-1,2,4,7,10,13-hexahydroxytax-11-en-9-one 4-acetate 2-benzoate, trihydrate, reference compound] the “partial responses (PR)” value ([1]; FIG. 16, docetaxel 30 mg/kg iv qwk×3) was 2.

For `O=c1[nH]cc(F)c(=O)[nH]1` [5-FU, 5-fluoro-1H-pyrimidine-2,4-dione, reference compound], the “complete responses (CR)” value [2] was 0 and the “partial responses (PR)” value [2] was 0.

In the case of “pertuzumab: recombinant, humanized monoclonal antibody that inhibits dimerization of HER2 (CAS Reg. No. 380610-27-5) [reference compound]”, the “complete responses (CR)” value (KPL-4 tumors; [6]) is reported as 0, the “partial responses (PR)” value (KPL-4 tumors; [6]) is reported as 0 and the “single agent efficacy vs vehicle” value [1] is reported as “not different from vehicle”.

For `Cc1ccc(F)c(NC(=O)Nc2ccc(-c3cccc4[nH]nc(N)c34)cc2)c1` [ABT-869, 1-(4-(3-amino-1H-indazol-4-yl)phenyl)-3-(2-fluoro-5-methylphenyl)urea, reference compound], the “efficacy vs vehicle by time to tumor doubling” value ([1]; FIG. 15, ABT-869 5 mg/kg po bid×21) was “not different than vehicle”, the “efficacy vs vehicle by time to endpoint” value ([1]; FIG. 15, ABT-869 5 mg/kg po bid×21, p<0.01) was “significantly better than vehicle” and the “efficacy vs vehicle by both time to tumor doubling and time to tumor endpoint” value ([1]; FIG. 15, p<0.01) was “significantly better than vehicle”.

For `CS(=O)(=O)N1CCN(Cc2cc3nc(-c4cccc5[nH]ncc45)nc(N4CCOCC4)c3s2)CC1` [GDC-0941, 4-(2-(1H-indazol-4-yl)-6-((4-(methylsulfonyl)piperazin-1-yl)methyl)thieno[3,2-d]pyrimidin-4-yl)morpholine], the “phospho-Akt and phospho-ERK” value [3] was “inhibition”, the “phosphorylation of Rb and PRAS40” value [3] was “decreased phosphorylation” and the “safety of the dose as a single agent” value [4] was “safe as a single agent without any dose limiting toxicities”. The “complete response (CR)” value [5, 7] was 0, the “partial responses (PR)” value [5, 7] was 0 and the “complete response (CR)” value [5, 8] was 0. For the same compound, the “partial responses (PR)” value [5, 8] was 1, the “complete response (CR)” value [5, 9] was 0 and the “partial responses (PR)” value [5, 9] was 0.

For `CS(=O)(=O)CCNCc1ccc(-c2ccc3ncnc(Nc4ccc(OCc5cccc(F)c5)c(Cl)c4)c3c2)o1` [lapatinib, N-(3-chloro-4-(3-fluorobenzyloxy)phenyl)-6-(5-((2-(methylsulfonyl)ethylamino)methyl)furan-2-yl)quinazolin-4-amine, reference compound], the “single agent efficacy vs vehicle” value [1] was “not different from vehicle”.

For `Cc1c(CN2CCN(C(=O)[C@H](C)O)CC2)sc2c(N3CCOCC3)nc(-c3cnc(N)nc3)nc12` [GNE-390, (S)-1-(4-((2-(2-aminopyrimidin-5-yl)-7-methyl-4-morpholinothieno[3,2-d]pyrimidin-6-yl)methyl)piperazin-1-yl)-2-hydroxypropan-1-one], the “complete response (CR)” value [5, 10] was 0, the “partial responses (PR)” value [5, 10] was 0 and the “complete response (CR)” value [5, 11] was 0. For the same compound, the “partial responses (PR)” value [5, 11] was 1.

For T-DM1, the “apoptosis (23 kDa PARP-cleavage fragment, Bcl-XL, activation of caspases 3 and 7)” value [3] was “resulted in apoptosis”, the “phospho-Akt and phospho-ERK” value [3] was “inhibition” and the “levels of the mitotic markers phospho-histone H3 and cyclin B1” value ([3]; after treatment) was “increased levels”. The “complete responses (CR)” value (KPL-4 tumors; T-DM1 0.3 mg/kg once on day 0) was 0, the “partial responses (PR)” value (KPL-4 tumors; T-DM1 0.3 mg/kg once on day 0) was 0 and the “complete responses (CR)” value (KPL-4 tumors; T-DM1 1 mg/kg once on day 0) was 0. The “partial responses (PR)” value (KPL-4 tumors; T-DM1 1 mg/kg once on day 0) was 1, the “complete responses (CR)” value (KPL-4 tumors; T-DM1 3 mg/kg once on day 0) was 0 and the “partial responses (PR)” value (KPL-4 tumors; T-DM1 3 mg/kg once on day 0) was 7. For the same compound, the “remaining tumors less than 50 mm^3 with no evidence of viable tumor cells (histology, end of study)” value (KPL-4 tumors; FIG. 11, T-DM1 5 mg/kg single iv, 5-FU 100 mg/kg qwk×3, pertuzumab 40 mg/kg qwk×4) was 8 samples, the “complete response (CR)” value [5, 12] was 1 and the “partial responses (PR)” value [5, 12] was 1. For the same compound, the “complete response (CR)” value [5, 13] was 1, the “partial responses (PR)” value [5, 13] was 8 and the “single agent efficacy vs vehicle” value [1] was “efficacious as a single agent”. The “efficacy vs vehicle by both time to tumor doubling and time to tumor endpoint” value ([1]; FIG. 15, p<0.01) was “significantly better than vehicle”, the objective responses ([1]; FIG. 16, T-DM1 7.5 mg/kg iv q3wk×2) was “no objective responses” and the “complete response (CR)” value [1, 14] was 1 and 2. The “partial responses (PR)” value [1, 14] was 6 and 5, the “complete responses (CR)” value [1, 15] was 3 and the “partial responses (PR)” value [1, 15] was 6. For the same compound, the “complete responses (CR)” value [2] was 0 and the “partial responses (PR)” value [2] was 1.
